Measurements reported in patent publication US4301177A, “(3-Methyl-2-butenyl)propanedioic acid mono (1,2-diphenylhydrazide) and salts thereof” (Istituto de Angeli S.p.A., priority 1979, dated 1981).
Counter-ions that a name gives are not always drawn.

Key:
rats [1] = experiment: Effect on normal temperature of rats (Table VI); assay type: in vivo, male Sprague-Dawley rats
Protocol: (§1) In the present study the test compounds were administered perorally by means of a stomach tube as an aqueous suspension in 5% acacia gum at a constant volume of 10 ml/kg to male Swiss mice and male Sprague-Dawley rats. Control rats and mice were given a corresponding volume of the aqueous suspension medium. The results were statistically evaluated by Dunnett's test (C. V. Dunnett.: J.A. Stat. Ass., 40, 1096, 1955).
6. Effect on normal temperature of rats
The rectal temperature was measured at 30-minute intervals before and after administration of the test compound, that is, at -1.5, -1, -0.5, 0.5, 1, 1.5 and 2 hours, using groups of 10 rats each for each dosage level.
(§2) Average values of the temperatures obtained in the treated rats were compared with those of control rats.

rats [2] = experiment: Effect on arthritis induced in rats by Freund's adjuvant (Table II); assay type: in vivo, male Sprague-Dawley rats; settings: day 20
rats [3] = experiment: Analgesic-anti-inflammatory activity, Randall and Selitto, brewer's yeast inflamed paw in rats (Table IV); assay type: in vivo, male Sprague-Dawley rats; settings: for Analgesic Index: ratio to controls (1.0)
Protocol: as §1
4. Analgesic-anti-inflammatory activity
The analgesic-anti-inflammatory activity was evaluated in rats by the method of Randall and Selitto (Arch. Int. Pharmacodyn., 111, 409, 1957), using an analgesimeter to measure the minimum load that must be applied to a rat's hind paw to elicit a painful stimulus.
Both the controls and the experimental rats were injected into the right hind paw with 0.1 ml of 20% brewer's yeast in sterile saline immediately before the administration of the test compound.
The volume of the inflamed right hind paw was measured 1, 2 and 4 hours after the administration of the test compound.
The analgesic-anti-inflammatory activity was evaluated using an "analgesic index" expressed as a ratio between the sum of the average weights (grams) necessary to provoke a painful stimulus at different times in treated and control animals.

mice = experiment: Analgesic activity, hot plate test in mice (Table III); assay type: in vivo, male Swiss mice
Protocol: as §1
The analgesic activity was evaluated in mice by the hot plate test according to Janssen and Jageneau (J.Pharm.Pharmac., 9, 381, 1957).
The plate temperature was kept constant at 55° C.; the reaction time was determined before and 30, 60, 90 and 120 minutes after oral administration of the test compound. Average values after administration of the test compound were compared to those obtained before treatment.

rats [4] = experiment: Antipyretic activity, fever induced by brewer's yeast in rats (Table V); assay type: in vivo, male Sprague-Dawley rats
Protocol: as §1
The antipyretic activity was investigated in rats by the method of Niemegeers et al. (see Arzneim.Forsch. 25, 1519, 1975). The rectal temperature was measured immediately before and 4 hours after the subcutaneous injection of 1 ml/100 g body weight of a 15% brewer's yeast suspension in 1% acacia gum.
The test compound was administered orally to groups of 5 different rats per dose 4 hours after the yeast injection. The rectal temperature was measured 0.5, 1, 1.5, 2, 2.5, 3 and 19 hours after treatment.
as §2

rats [5] = experiment: Ulcerogenic effect, gastric lesions in rats (Table VIII); assay type: in vivo, male Sprague-Dawley rats; settings: for Body weight, mean ± standard deviation / % animals with gastric lesions / Ulcerogenic Index: single dose; for % animals with gastric lesions / Ulcerogenic Index: 16 h
Protocol: as §1
The ulcerogenic effect was determined in rats by the method of Niemegeers et al. (Arzneimittel-Forschung 25, 1537, 1975). A single oral dose was administered to groups of 15 rats fasted for 9 hours before treatment and kept fasting throughout the whole experimental period. The animals were sacrificed 16 hours after treatment; the severity of lesions was scored according to an arbitrary scale ranging from + to ++++. For each group of rats, an ulcerogenic index was calculated according to Pauls et al., (Gastroenterology 8, 774, 1947).

CC(C)=CCC(C(=O)O)C(=O)N(Nc1ccccc1)c1ccccc1 (stereo not drawn) [A, Calcium salt of (3-methyl-2-butenyl)propanedioic acid mono(1,2-diphenylhydrazide)]
Rectal temperature (normal rats) (rats [1]; 40 mg/kg oral, 0.5 h): 35.96 °C | Rectal temperature (normal rats) (rats [1]; 40 mg/kg oral, 1 h): 36.28 °C | Rectal temperature (normal rats) (rats [1]; 40 mg/kg oral, 1.5 h): 36.34 °C | Rectal temperature (normal rats) (rats [1]; 40 mg/kg oral, 2 h): 36.54 °C | Rectal temperature (normal rats) (rats [1]; 40 mg/kg oral, -0.5 h (before administration)): 36.20 °C | Rectal temperature (normal rats) (rats [1]; 40 mg/kg oral, -1 h (before administration)): 36.62 °C | Rectal temperature (normal rats) (rats [1]; 40 mg/kg oral, -1.5 h (before administration)): 36.81 °C | Rectal temperature (normal rats) (rats [1]; 80 mg/kg oral, 0.5 h): 36.25 °C | Rectal temperature (normal rats) (rats [1]; 80 mg/kg oral, 1 h): 36.12 °C | Rectal temperature (normal rats) (rats [1]; 80 mg/kg oral, 1.5 h): 36.14 °C | Rectal temperature (normal rats) (rats [1]; 80 mg/kg oral, 2 h): 36.15 °C | Rectal temperature (normal rats) (rats [1]; 80 mg/kg oral, -0.5 h (before administration)): 36.33 °C | Rectal temperature (normal rats) (rats [1]; 80 mg/kg oral, -1 h (before administration)): 36.42 °C | Rectal temperature (normal rats) (rats [1]; 80 mg/kg oral, -1.5 h (before administration)): 36.75 °C | Rectal temperature (normal rats) (rats [1]; 160 mg/kg oral, 0.5 h): 35.71 °C | Rectal temperature (normal rats) (rats [1]; 160 mg/kg oral, 1 h): 35.85 °C | Rectal temperature (normal rats) (rats [1]; 160 mg/kg oral, 1.5 h): 35.91 °C | Rectal temperature (normal rats) (rats [1]; 160 mg/kg oral, 2 h): 35.86 °C | Rectal temperature (normal rats) (rats [1]; 160 mg/kg oral, -0.5 h (before administration)): 36.22 °C | Rectal temperature (normal rats) (rats [1]; 160 mg/kg oral, -1 h (before administration)): 36.32 °C | Rectal temperature (normal rats) (rats [1]; 160 mg/kg oral, -1.5 h (before administration)): 37.01 °C | % Inhibition (rats [2]; 40 mg/kg oral): 34% | % Inhibition (rats [2]; 80 mg/kg oral): 35% | % Inhibition (rats [2]; 160 mg/kg oral): 45% | Mean of the weights eliciting painful stimulus (rats [3]; 40 mg/kg oral, 1 h): 196.2 grams | Mean of the weights eliciting painful stimulus (rats [3]; 40 mg/kg oral, 2 h): 128.8 grams | Mean of the weights eliciting painful stimulus (rats [3]; 40 mg/kg oral, 4 h): 95.0 grams | Analgesic Index (rats [3]; 40 mg/kg oral): 1.49 | Mean of the weights eliciting painful stimulus (rats [3]; 80 mg/kg oral, 1 h): 192.6 grams | Mean of the weights eliciting painful stimulus (rats [3]; 80 mg/kg oral, 2 h): 147.6 grams | Mean of the weights eliciting painful stimulus (rats [3]; 80 mg/kg oral, 4 h): 146.2 grams | Analgesic Index (rats [3]; 80 mg/kg oral): 1.72 | Mean of the weights eliciting painful stimulus (rats [3]; 160 mg/kg oral, 1 h): 245.0 grams | Mean of the weights eliciting painful stimulus (rats [3]; 160 mg/kg oral, 2 h): 171.2 grams | Mean of the weights eliciting painful stimulus (rats [3]; 160 mg/kg oral, 4 h): 143.8 grams | Analgesic Index (rats [3]; 160 mg/kg oral): 1.98 | Reaction time (mice; 50 mg/kg oral, 0 (before administration)): 15.40 ± 2.76 s | Reaction time (mice; 50 mg/kg oral, 30 min): 16.70 ± 3.86 s | Reaction time (mice; 100 mg/kg oral, 0 (before administration)): 12.90 ± 3.21 s | Reaction time (mice; 200 mg/kg oral, 0 (before administration)): 14.40 ± 2.95 s | analgesic activity in the hot plate test compared with bumadizon calcium (mice; summary, Table III): higher, begins earlier and lasts longer than that of bumadizon calcium | Rectal temperature (rats [4]; 40 mg/kg oral, 0 h (4 h after yeast, before treatment)): 38.00 °C | Rectal temperature (rats [4]; 40 mg/kg oral, 0.5 h): 37.51 °C | Rectal temperature (rats [4]; 40 mg/kg oral, 1 h): 38.41 °C | Rectal temperature (rats [4]; 40 mg/kg oral, 1.5 h): 38.24 °C | Rectal temperature (rats [4]; 40 mg/kg oral, 2 h): 38.23 °C | Rectal temperature (rats [4]; 40 mg/kg oral, 2.5 h): 38.28 °C | Rectal temperature (rats [4]; 40 mg/kg oral, 3 h): 38.10 °C | Rectal temperature (rats [4]; 40 mg/kg oral, 19 h): 37.51 °C | Rectal temperature (rats [4]; 40 mg/kg oral, -4 h (before yeast)): 37.00 °C | Rectal temperature (rats [4]; 80 mg/kg oral, 0 h (4 h after yeast, before treatment)): 38.14 °C | Rectal temperature (rats [4]; 80 mg/kg oral, 0.5 h): 37.16 °C | Rectal temperature (rats [4]; 80 mg/kg oral, 1 h): 37.47 °C | Rectal temperature (rats [4]; 80 mg/kg oral, 1.5 h): 37.54 °C | Rectal temperature (rats [4]; 80 mg/kg oral, 2 h): 37.57 °C | Rectal temperature (rats [4]; 80 mg/kg oral, 2.5 h): 37.47 °C | Rectal temperature (rats [4]; 80 mg/kg oral, 3 h): 37.47 °C | Rectal temperature (rats [4]; 80 mg/kg oral, 19 h): 36.75 °C | Rectal temperature (rats [4]; 80 mg/kg oral, -4 h (before yeast)): 37.06 °C | Rectal temperature (rats [4]; 160 mg/kg oral, 0 h (4 h after yeast, before treatment)): 38.06 °C | Rectal temperature (rats [4]; 160 mg/kg oral, 0.5 h): 37.14 °C | Rectal temperature (rats [4]; 160 mg/kg oral, 1 h): 37.20 °C | Rectal temperature (rats [4]; 160 mg/kg oral, 1.5 h): 37.62 °C | Rectal temperature (rats [4]; 160 mg/kg oral, 2 h): 37.67 °C | Rectal temperature (rats [4]; 160 mg/kg oral, 2.5 h): 37.58 °C | Rectal temperature (rats [4]; 160 mg/kg oral, 3 h): 37.76 °C | Rectal temperature (rats [4]; 160 mg/kg oral, 19 h): 37.86 °C | Rectal temperature (rats [4]; 160 mg/kg oral, -4 h (before yeast)): 36.46 °C | Body weight, mean ± standard deviation (rats [5]; 40 mg/kg oral): 206.67 ± 9.00 grams | % animals with gastric lesions (rats [5]; 40 mg/kg oral): 0% | Ulcerogenic Index (rats [5]; 40 mg/kg oral): 0 | Body weight, mean ± standard deviation (rats [5]; 80 mg/kg oral): 205.33 ± 6.40 grams | % animals with gastric lesions (rats [5]; 80 mg/kg oral): 0% | Ulcerogenic Index (rats [5]; 80 mg/kg oral): 0 | Body weight, mean ± standard deviation (rats [5]; 160 mg/kg oral): 212.67 ± 12.23 grams | % animals with gastric lesions (rats [5]; 160 mg/kg oral): 0% | Ulcerogenic Index (rats [5]; 160 mg/kg oral): 0 | Body weight, mean ± standard deviation (rats [5]; 320 mg/kg oral): 218.67 ± 6.40 grams | % animals with gastric lesions (rats [5]; 320 mg/kg oral): 46.66% | Ulcerogenic Index (rats [5]; 320 mg/kg oral): 71.38 | ulcerogenic effect compared with prior art compound (rats [5]; summary, Table VIII): less ulcerogenic
